Several values for one entry are separate records, joined by “and”; a condition that tells them apart may be missing. Identical values can stand only once. Counter-ions that a name gives are not always drawn.
Assays:
[1] = type: physicochemical
Description: (§1) Form I was characterized by pKa, LogP, LogPion and LogD determination and prediction, XRPD before and after storage at 40° C./75% RH for 4 weeks, PLM, DSC and TGA, ^1HNMR, solubility in water with pH measurement, HPLC purity before and after storage at 40° C./75% RH for 4 weeks, water content, GVS with XRPD and purity analysis after measurement, and VT-XRPD.
As expected from the predicted values, the compound is suitable for a mono salt screen and should form strong stable salts.

[2] = type: physicochemical; remark: listed apart in the source
Description: as §1
LogP, LogPion and LogD values were measured by using different ratios of 0.1 5M KCl(Aq) to 1-octanol, with refinement of a multiset of the data. The measured LogP, 3.96, is in good agreement with the predicted values.

[3] = Storage at 40° C./75% RH (XRPD, HPLC purity, colour); type: physicochemical
[4] = GVS (gravimetric vapour sorption), single cycle; type: physicochemical
Description: as §1
This weight increase was not associated with any significant hysteresis between the adsorption and desorption cycles.

[5] = Description: The suspension was then equilibrated at 25° C. for 24 hours followed by a pH check and filtration through a glass fibre C 96 well plate. […] HPLC using a generic 5 minute method was used to quantify the amount of sample in solution with reference to a standard dissolved in DMSO at 0.1 mg/ml. Various volumes of the standard, diluted and undiluted tests were injected. […] If sufficient solid remained in the filter plate the XRPD was normally checked for phase changes, hydrate formation, amorphization, crystallization and other changes.
rats [6] = test: Visceromotor response to colorectal distension, acetic acid-induced colonic hypersensitivity; type: in vivo, rat; conditions: for Visceromotor response (number of abdominal contractions) to colorectal distension vs vehicle: all doses tested i.p. (ondansetron 1, 5, 10; nisoxetine 3, 10, 30 mg/kg)
Description: A 10 min recovery was allowed between distensions.
Adult male rats were used in the study.
Ten minute recovery periods were allowed following each distension.
Statistical significance of the treatment groups was assessed using one-way ANOVA followed by Tukey post-test. […] (*) p<0.05, (**) p<0.01, (***) p<0.001

rats [7] = test: Small Intestinal Transit Rodent Model (charcoal meal); type: in vivo, rat; conditions: for Small intestinal transit, Mean (% of total small intestinal length): 15-min test period
Description: Following an overnight fast, rats were brought to the laboratory in their home cages and received an i.p. injection of one of the following: […] Control rats received no treatment. The treated rats were placed back in the home cages and after 30 min, were fed a 2 mL charcoal meal via an oral gavage. Small intestinal transit was measured following 15 min test-period. Each rat was placed briefly in a glass chamber with IsoFlo for anesthesia and sacrificed. The stomach and the small intestine were removed and the total length of the small intestine was measured. Transit was then measured as the distance that the charcoal meal had traveled along the small intestine and expressed as % of the total length. Animals were randomly assigned to experimental groups and experiments were performed as illustrated in Table 3. Ondansetron was supplied from APIN Chemicals LTD. […] MCI-225 was provided by Mitsubishi Pharma Corp. All drugs were dissolved in a vehicle of 100% propylene glycol (1,2-Propanediol) by sonicating for 10 min. Propylene glycol was obtained from Sigma Chemical Co. Ondansetron, a 5-HT3-receptor antagonist was dosed i.p. at 1, 5, and 10 mg/kg. […] All doses were delivered in a final volume of 200 μL. Animals in the vehicle control group received 200 μL of 100% Propylene glycol and animals in the normal control group were untreated. Small intestinal transit in rats was investigated by the passage of a charcoal meal along the small intestine during a defined time period (15-min). The animals were deprived of food for 12-16 hrs prior to the experiments. Rats were given a charcoal meal (a mixture of charcoal, gum arabic, and distilled water) as a 2 mL oral gavage and were sacrificed after a 15-min test period. The distance traveled by the charcoal meal was quantified as a percent of the small intestinal length, using the following equation: Transit (%)=cm traveled by meal/cm total small intestinal length×100 […] Statistical analysis was performed to determine mean, standard error to the mean and standard deviation for each group (See Table 3). Differences between individual dose groups within treatments and comparisons between drug-treated and vehicle-treated groups were determined using an unpaired t test considering that when % is used as a relative unit, t-statistic is relevant. In all cases p<0.05 was considered statistically significant.

ferrets = test: Cisplatin-induced emesis in the ferret; type: in vivo, Mustela putario furo
Description: The ability of MCI-225 to reduce retching and vomiting in an accepted model of cytotoxin-induced emesis in the ferret was assessed. Specifically, the experiments described herein investigated the effect of MCI-225 on retching and vomiting induced by cisplatin. Ondansetron was used as a positive control in the model, in view of its known antiemetic activity. Adult male ferrets (Mustela putario furo) weighing 1200-1880 g were purchased from Triple F Farms (Sayre, Pa.) and housed in individual cages at standardized conditions (12:12 h light/dark cycle and 21-23° C.). Prior to the experiments, the ferrets were allowed a 7-10 day acclimatization period to the animal facility. The ferrets were fed a carnivore diet with free access to food and water throughout the course of the study. The use of the ferret model of emesis and the drug treatment were preapproved in accordance with facility standards. A cisplatin solution was prepared by adding preheated (70° C.) saline to cisplatin powder (Sigma-Aldrich Co.) and stirring or sonicating at 40° C. until dissolved. Following administration of the cisplatin and either MCI-225, ondansetron or vehicle alone, the occurrence of retching and vomiting was monitored for a period of 6 hours. Retching was defined as the number of forceful rhythmic contractions of the abdomen occurring with the animal in characteristic posture, but not resulting in the expulsion of upper gastrointestinal tract contents (Watson et al., British Journal of Pharmacology, 115(1): 84-94 (1994)). Vomiting was defined as the forceful oral expulsion of upper gastrointestinal contents. The latency of the retching or vomiting response and the number of episodes were recorded for each animal and summarized for each experimental group (Wright et al., Infect. Immun., 68(4): 2386-9 (2000)). Following one hour of acclimation to the observation cage, ferrets received an intraperitoneal (i.p.) injection of cisplatin (5 mg/kg in 5 mL) followed in about 2 minutes by i.p. injection of a single dose of MCI-225 or ondansetron (Rudd and Naylor, Eur. J. Pharmacol., 322: 79-82 (1997)). Dose-response effects of MCI-225 dosed at 1, 10 and 30 mg/kg i.p. in a 0.5 mL/kg solution or ondansetron dosed at 5 and 10 mg/kg i.p. in a 0.5 mL/kg solution were studied. Each animal received a single-dose drug treatment. In addition, three animals received an initial dose (30 mg/kg i.p.) and a second MCI-225 injection (30 mg/kg i.p.) 180 minutes following the initial dose. […] All groups were randomized.

rats [8] = test: Water avoidance stress (WAS) model of increased colonic transit, fecal pellet output; type: in vivo, rat; conditions: for WAS-induced fecal pellet output in 1 hour: all doses tested i.p. (MCI-225, nisoxetine 3, 10, 30; ondansetron 1, 5, 10 mg/kg)
Description: Ondansetron (5-HT3 receptor antagonist), nisoxetine (NARI) and a combination of ondansetron and nisoxetine were used as comparison compounds. The model provides a method of evaluating the effectiveness of a compound in a specific patient group of IBS sufferers where stress induced colonic motility is considered a significant contributing factor.
Fecal pellet output was measured by counting the total number of fecal pellets produced during 1 hour of WAS.
All rats underwent sham stress (I-hour in stress chamber without water) for 2-4 consecutive days before undergoing WAS (sham was performed until rats produced 0-1 pellet per hour for 2 consecutive days). At the end of the 1-hour stress period, the fecal pellets were counted and recorded.
WAS causes an acceleration of colonic transit, which can be quantified by counting the number of fecal pellets, produced during the stress procedure. Rats were placed for 1-hour into a stress chamber onto a raised platform 7.5 cm×7.5 cm×9 cm (L×W×H) in the center of a stress chamber filled with room temperature water 8 cm in depth.
Control drugs for this study were ondansetron and nisoxetine. Ondansetron was supplied from APIN Chemicals LTD. Nisoxetine was supplied by Tocris. […] All drugs and the vehicle were administered as an i.p. injection in a volume of 0.2 mL.
Statistical significance was assessed using one-way ANOVA followed by Tukey post-test. Statistical differences were compared between the WAS groups and the sham stress group and was considered significant if p<0.05. (*) p<0.05, (**) p<0.01, (***) p<0.001

[9] = 30 mg/kg b.i.d, i.p., 180-min interval

For “4-(2-fluorophenyl)-6-methyl-2-(piperazin-1-yl)thieno[2,3-d] pyrimidine hydrochloride [MCI-225]”, the “pKa (basic)” value [1] was 8.64, the “pKa of second basic centre” value [1] was 0.81 and the LogP [2] was 3.96. The LogPion [2] was 1.41, the LogD ([2]; pH 7.4) was 2.72 and the “Appearance of material surface after storage” value ([3]; 4 weeks at 40° C./75% RH, ambient light) was “gone yellow”. The “HPLC purity after storage” value ([3]; 4 weeks at 40° C./75% RH, ambient light, initial purity 100%) was 99.0%, the “XRPD pattern after storage” value ([3]; 40° C./75% RH, four weeks) was “unchanged” and the “GVS total weight increase” value ([4]; between 0 and 90% RH) was 5.0%. The GVS weight increase ([4]; between 20% and 30% RH, equivalent to 1.0 moles of water) was “about 4.8%”, the Aqueous solubility [5] was 2100 µg/mL and the “Aqueous solubility, equivalent as the free base” value [5] was 1700 µg/mL. The “pH after solubility equilibration” value [5] was 6.33.
In the case of `Cc1cc2c(-c3ccccc3F)nc(N3CCNCC3)nc2s1` [MCI-225, 4-(2-fluorophenyl)-6-methyl-2-(piperazin-1-yl)thieno[2,3-d] pyrimidine hydrochloride], the “Animals in which the visceromotor response to CRD was eliminated” value (rats [6]; 30 mg/kg i.p., acetic acid sensitized rats) is reported as 50 % of the animals, the “Small intestinal transit, Mean (% of total small intestinal length)” value (rats [7]; 3 mg/kg i.p.) is reported as 30.1% and the “Small intestinal transit, Mean (% of total small intestinal length)” value (rats [7]; 10 mg/kg i.p., hydrochloride) is reported as 4.2±2.6% and 4.2%. For the same molecule, the “Small intestinal transit, Mean (% of total small intestinal length)” value (rats [7]; 30 mg/kg i.p.) was 8.8%, the Latency (ferrets; 1 mg/kg i.p.) was 186 ± 35 min and the “Retches (360 min)” value (ferrets; 1 mg/kg i.p.) was 30.4 ± 9.1. For the same molecule, the “Total Events” value (ferrets; 1 mg/kg i.p.) was 32.9 ± 9.8, the “Vomits (360 min)” value (ferrets; 1 mg/kg i.p.) was 2.5 ± 0.7 and the Latency (ferrets; 10 mg/kg i.p.) was 192 ± 57 min. The “Retches (360 min)” value (ferrets; 10 mg/kg i.p.) was 22.9 ± 10.3, the “Total Events” value (ferrets; 10 mg/kg i.p.) was 25.5 ± 11.1 and the “Vomits (360 min)” value (ferrets; 10 mg/kg i.p.) was 2.6 ± 1.0. For the same molecule, the Latency (ferrets; [9]) was 360 ± 0 min, the “Retches (360 min)” value (ferrets; [9]) was 0.0 ± 0.0 and the “Total Events” value (ferrets; [9]) was 0.0 ± 0.0. The “Vomits (360 min)” value (ferrets; [9]) was 0.0 ± 0.0, the Latency (ferrets; 30 mg/kg i.p.) was 287 ± 38 min and the “Retches (360 min)” value (ferrets; 30 mg/kg i.p.) was 3.3 ± 2.2. The “Total Events” value (ferrets; 30 mg/kg i.p.) was 4.0 ± 2.6 and the “Vomits (360 min)” value (ferrets; 30 mg/kg i.p.) was 0.7 ± 0.5.
With `CNCCC(Oc1ccccc1OC)c1ccccc1` (centres unmarked) [Nisoxetine] the “Behavior in the home cage during the experiments” value (rats [6]; 30 mg/kg i.p.) was “increased exploratory behavior”, the “Visceromotor response (number of abdominal contractions) to colorectal distension vs vehicle” value (rats [6]) was “no significant effect” and the “Fecal pellets produced during WAS vs vehicle treated group” value (rats [8]; 10 and 30 mg/kg i.p.) was “significantly fewer fecal pellet produced”. For the same molecule, the “WAS-induced fecal pellet output in 1 hour” value (rats [8]) was “reduced by all doses”, the “Animals with charcoal meal completely retained in the stomach” value (rats [7]; 30 mg/kg i.p.) was 4 out of 5 and the Small intestinal transit (rats [7]; 30 mg/kg i.p.) was “almost completely inhibited the transit”. For the same molecule, the Small intestinal transit (rats [7]; 3 or 10 mg/kg i.p.) was “tendency to decrease small intestinal transit”.
With `Cc1nccn1CC1CCc2c(c3ccccc3n2C)C1=O` (centres unmarked) [Ondansetron] the “Visceromotor responses at moderate and high intraluminal pressure” value (rats [6]; 10 mg/kg i.p., 30 and 60 mmHg) was “did not abolish the responses”, the “Behavioral activity of the rats” value (rats [6]; 1, 5 or 10 mg/kg i.p.) was “No significant changes in the behavioral activity” and the “Visceromotor response (number of abdominal contractions) to colorectal distension vs vehicle” value (rats [6]) was “dose-dependent decrease in the number of abdominal contractions”. For the same molecule, the “WAS-induced fecal pellet output in 1 hour” value (rats [8]) was “dose-dependent inhibition”, the “Small intestinal transit vs vehicle” value (rats [7]; all doses tested i.p. (MCI-225 3, 10, 30; ondansetron 1, 5, 10 mg/kg)) was “significant reduction in small intestinal transit” and the “Latency of the emetic response following cisplatin” value (ferrets; all doses tested i.p.) was “increase in the latency”. For the same molecule, the “Emetic events (retches and vomits) induced by cisplatin” value (ferrets; all doses tested i.p. (ondansetron 5, 10; MCI-225 1, 10, 30 mg/kg)) was “dose-dependently reduced the number of emetic events”.
